# From PubChem BioAssay (NCI)
#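 Results reflect a 48-hour exposure of cells in 96-well plates to compound at five concentrations. The concentration for 50% growth inhibition is given as GI50. TGI: total growth inhibition.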
# Tests used:
# Test in all cases: NCI tumour cell line growth inhibition, 48 h
# MOLT-4 leukemia = test system: MOLT-4 leukemia
# SNB-75 CNS = test system: SNB-75 CNS
# MDA-N = test system: MDA-N
# MCF7 breast = test system: MCF7 breast
# T-47D breast = test system: T-47D breast
# M19-MEL melanoma = test system: M19-MEL melanoma
# KM20L2 colon = test system: KM20L2 colon
# DMS 114 small cell lung = test system: DMS 114 small cell lung
# LXFL 529 NSCLC = test system: LXFL 529 NSCLC
# XF 498 CNS = test system: XF 498 CNS
# SN12K1 renal = test system: SN12K1 renal
# P388 leukemia = test system: P388 leukemia
# HOP-18 NSCLC = test system: HOP-18 NSCLC
# SNB-78 CNS = test system: SNB-78 CNS
# DMS 273 small cell lung = test system: DMS 273 small cell lung
# DLD-1 colon = test system: DLD-1 colon
# P388/ADR leukemia = test system: P388/ADR leukemia
# RXF-631 renal = test system: RXF-631 renal
SMILES,TGI (MOLT-4 leukemia) [µM],TGI (SNB-75 CNS) [µM],TGI (MDA-N) [µM],TGI (MCF7 breast) [µM],TGI (T-47D breast) [µM],other results
C=CCOC1OC(CS(=O)(=O)O)C(O)C(O)C1O (stereo unspecified),> 100,> 100,> 100,> 100,> 100,
Nc1ccc2nc3ccc(N)cc3[n+](-c3ccccc3)c2c1,,> 100,> 100,> 100,> 100,
O=c1[nH]/c(=C/c2ccc(OCc3ccccc3)cn2)c(=O)[nH]/c1=C/c1ccc(Cl)cc1,> 100,25.2,0.723,> 100,> 100,
CCCCNc1c(CN)cnc2cc(Cl)ccc12,36.5,42.3,39.3,27.6,44.3,
CCOC(=O)c1sc2nc(SC)nc3c2c1NCN3c1ccc2c(c1)OCCCO2,> 100,,> 100,> 100,> 100,
O=C(N/N=C/c1ccc([N+](=O)[O-])cc1)c1cccc2nc3ccccc3nc12,> 100,> 100,> 100,> 100,> 100,
C(=C\c1nccs1)/c1cccc(/C=C/c2nccs2)n1,> 50,> 50,> 50,> 50,> 50,
Cc1ccc2cc3c(ccc4ccccc43)c3c2c1CC3,> 100,> 100,> 100,> 18.3,> 100,
CC(=O)OC1COC(n2nc(/C=C/c3ccc(Cl)cc3)c(=O)n(/N=C/c3ccccc3)c2=S)C(OC(C)=O)C1OC(C)=O (stereo unspecified),> 100,> 100,> 100,> 100,> 100,
Cc1nc(Nc2ccc(F)cc2)c2sc(=S)n(-c3ccc(F)cc3)c2n1,,29.6,,18.7,19.8,
COc1ccccc1N1C(Cl)C(=O)C1c1c[nH]c2ccccc12 (stereo unspecified),> 100,> 100,,,,TGI (M19-MEL melanoma): > 100 µM; TGI (KM20L2 colon): > 100 µM; TGI (DMS 114 small cell lung): > 100 µM; TGI (LXFL 529 NSCLC): > 100 µM; TGI (XF 498 CNS): > 100 µM
COc1cccc(Nc2nc(-c3cccs3)nc3ccc(Br)cc23)c1,,,,63.8,> 100,
c1ccc(C(c2ccccc2)[P+](c2ccccc2)(c2ccccc2)c2ccccc2)cc1,4.06,5.17,,11.9,,TGI (SN12K1 renal): 12.3 µM; TGI (P388 leukemia): 1.89 µM; TGI (HOP-18 NSCLC): 2.74 µM; TGI (M19-MEL melanoma): 9.69 µM; TGI (SNB-78 CNS): 12.9 µM; TGI (KM20L2 colon): 11.8 µM; TGI (DMS 273 small cell lung): 2.17 µM; TGI (DLD-1 colon): 14.2 µM; TGI (DMS 114 small cell lung): 2.73 µM; TGI (P388/ADR leukemia): 31.8 µM; TGI (XF 498 CNS): 0.737 µM
CN(C)CCCNc1ncnc2nc[nH]c12,> 100,,> 100,> 100,> 100,
COc1ccc2oc(=O)cc(C)c2c1,> 100,> 100,> 100,> 100,> 100,
Cc1cc(OCc2nn(CN3CCN(C)CC3)c(=S)n2/N=C/c2ccc(-c3ccc(Cl)cc3Cl)o2)ccc1Cl,> 100,,> 100,> 100,> 100,
FC(F)(F)C(C1=NC(C(F)(F)F)(C(F)(F)F)N=C(N2CCOCC2)O1)C(F)(F)F,> 100,> 100,53.8,,89.4,
COc1ccc(C2C3CCc4ccccc4C3=NN2S(=O)(=O)c2ccc(Cl)cc2)cc1 (stereo unspecified),> 100,,9.19,34.8,> 100,
O=C(O)C(O)Cc1ccccn1 (stereo unspecified),,,,> 100,> 100,
COc1cc(-c2c(C#N)c(N)c(C#N)c3c2COc2ccccc2-3)cc(OC)c1OC,> 100,,> 100,> 100,> 100,
O=C(c1ccccc1)[C@H]1Nc2ccc(Cl)cc2[C@H]2OCCC[C@@H]12,61.7,,,,,TGI (HOP-18 NSCLC): 55.7 µM; TGI (M19-MEL melanoma): 49.1 µM; TGI (SNB-78 CNS): 72.1 µM; TGI (KM20L2 colon): 39.4 µM; TGI (DMS 273 small cell lung): 39 µM; TGI (DMS 114 small cell lung): 37.1 µM; TGI (LXFL 529 NSCLC): 33.5 µM; TGI (RXF-631 renal): 34.5 µM; TGI (XF 498 CNS): 33.6 µM
C=CC(=O)N1CCN(c2nc(OC[C@@H]3CCCN3C)nc3c2CCN(c2cccc4cccc(C)c24)C3)C[C@@H]1CC#N,,2.31,,,,GI50 (SNB-75 CNS): 1.09 µM
N=C(N)C(N=Nc1ccccc1)C(N)=O (stereo unspecified),> 100,> 100,> 100,> 100,> 100,
CS/C(=N\C(=S)Nc1ccccc1)Nc1ccccc1,85.7,84.7,,,,TGI (M19-MEL melanoma): 81 µM; TGI (SNB-78 CNS): > 100 µM; TGI (KM20L2 colon): > 100 µM; TGI (DMS 114 small cell lung): 52.6 µM
Nc1ccc(C2NC(=O)Cc3c2ccc2ccccc32)cc1 (stereo unspecified),> 100,> 100,> 100,> 100,> 100,
NC(=O)NO,2100,2310,> 2500,> 2460,> 2500,TGI (SN12K1 renal): 1890 µM; TGI (P388 leukemia): 548 µM; GI50 (HOP-18 NSCLC): 1130 µM; TGI (HOP-18 NSCLC): 1940 µM; TGI (M19-MEL melanoma): > 2450 µM; TGI (SNB-78 CNS): > 2500 µM; TGI (KM20L2 colon): 1700 µM; TGI (DMS 273 small cell lung): 1360 µM; TGI (DLD-1 colon): > 2500 µM; TGI (LXFL 529 NSCLC): > 2320 µM; TGI (P388/ADR leukemia): 502 µM; TGI (XF 498 CNS): 1850 µM
